# Measurements as given in US9073926B2, “Heterocyclic compounds containing a pyrrolopyridine or benzimidazole core” (Boehringer Ingelheim International GmbH, priority 2009, dated 2015).
# Target: Human RSK2 (Homo sapiens (Human), UniProt P51812)
# Assay: Human RSK2 Assay (Kinase Glo Plus, residual ATP)
# Format: biochemical
# Settings: 0.75 nM His-RSK2, 0.75 μM ATP, 1.0 μM S6 Kinase/RSK Substrate Peptide 1
# Experimental: Experimental Method A: Human RSK2 Assay
# Compounds are assessed for their ability to inhibit the phosphorylation of a substrate peptide by RSK2.
# Human RSK2 protein, purchased from Invitrogen, is used to measure kinase activity utilizing Kinase Glo Plus (Promega) a homogeneous assay technology, which uses a luciferin-luciferase based ATP detection reagent to quantify residual ATP. The assay is performed using 0.75 nM His-RSK2, 0.75 μM ATP and 1.0 μM S6 Kinase/RSK Substrate Peptide 1 (Upstate, catalog #12-124), in assay buffer consisting of 25 mM HEPES, pH 7.5, 10 mM MgCl2, 5 mM MnCl2, 50 mM KCl, 0.2% BSA, 0.01% CHAPS, 100 μM Na3VO4, 0.5 mM DTT, and 1% DMSO. Solutions of test compounds at various concentrations are prepared by 1:3 fold serial dilution of a 1 mM solution of compound in DMSO. The DMSO solutions are further diluted with assay buffer to a final concentration of DMSO of 5%.
# The assay is performed in a 384 well, white, non-binding plate (Corning, catalogue #3574). Solutions of test compounds (10 μL) are transferred to a dry assay plate, followed by addition of 20 μL kinase and 20 μL ATP+Substrate Peptide 1 described above. The kinase reaction mixture is incubated for 90 minutes at 28° C. followed by addition of 30 μL of ATP detection reagent for 15 minutes at room temperature. The relative light unit (RLU) signal is measured on a LJL Analyst (Molecular Devices) in luminescence mode using 384 aperture. The RLU signals were converted to percent of control (POC) values using the formula: POC=100*(BCTRL−Signal)/(BCTRL−PCTRL), where Signal is the test well RLU signal, BCTRL is the average of background (negative control), which consists of ATP+peptide and compound buffer, well signals on the plate, and PCTRL is the average of positive control, which consists of kinase, ATP+peptide, and compound buffer, well signals on the plate. For concentration-responsive compounds, POC as a function of test compound concentration are fitted to a 4-parameter logistic equation of the form: Y=A+(B−A)/[1+(x/C)^D], where A, B, C, and D are fitted parameters (parameter B is fixed at zero POC), and x and y are the independent and dependent variables, respectively. The IC50 (50% inhibitory concentration) is determined as the inflection point parameter, C. Experimental Method B: Human RSK2 Trans-Reporter Assay
# Human RSK2, sequence (P51812 whole entry): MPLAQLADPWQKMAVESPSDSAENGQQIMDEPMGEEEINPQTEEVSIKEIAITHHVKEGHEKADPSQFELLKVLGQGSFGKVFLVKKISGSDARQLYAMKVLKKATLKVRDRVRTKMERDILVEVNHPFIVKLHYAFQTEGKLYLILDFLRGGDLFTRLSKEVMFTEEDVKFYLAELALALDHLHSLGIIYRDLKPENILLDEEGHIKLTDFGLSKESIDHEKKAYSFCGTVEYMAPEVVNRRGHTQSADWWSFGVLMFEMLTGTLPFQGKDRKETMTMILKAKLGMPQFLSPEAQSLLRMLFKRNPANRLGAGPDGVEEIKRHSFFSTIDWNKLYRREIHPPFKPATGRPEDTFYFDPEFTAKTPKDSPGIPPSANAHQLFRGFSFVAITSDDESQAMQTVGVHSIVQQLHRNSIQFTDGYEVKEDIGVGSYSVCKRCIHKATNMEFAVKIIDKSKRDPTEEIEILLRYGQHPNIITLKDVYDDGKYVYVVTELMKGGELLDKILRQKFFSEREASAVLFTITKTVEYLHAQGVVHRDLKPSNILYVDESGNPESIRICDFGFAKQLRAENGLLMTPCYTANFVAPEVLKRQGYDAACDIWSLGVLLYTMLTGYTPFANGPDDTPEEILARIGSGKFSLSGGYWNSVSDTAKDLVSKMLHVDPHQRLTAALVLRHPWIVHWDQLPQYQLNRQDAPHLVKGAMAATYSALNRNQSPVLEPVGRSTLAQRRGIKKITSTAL
row,SMILES,IC50
1,"O=C(Nc1cccnc1)c1ccc2nc3n(c2c1)CCCNC3=O [Example 1, 1-oxo-N-(pyridin-3-yl)-2,3,4,5-tetrahydro-1H-[1,4]diazepino[1,2-a]benzimidazole-8-carboxamide]",5600 nM
2,"CCn1c(NC(=O)c2ccc3nc4n(c3c2)CCCNC4=O)nc2ccccc21 [Example 3, N-(1-ethyl-1H-benzimidazol-2-yl)-1-oxo-2,3,4,5-tetrahydro-1H-[1,4]diazepino[1,2-a]benzimidazole-8-carboxamide]",5.5 nM
3,"CC(C)n1c(NC(=O)c2ccc3nc4n(c3c2)CCCNC4=O)nc2ccccc21 [Example 4, 1-oxo-N-[1-(propan-2-yl)-1H-benzimidazol-2-yl]-2,3,4,5-tetrahydro-1H-[1,4]diazepino[1,2-a]benzimidazole-8-carboxamide]",33 nM
4,"Cc1ccnc(NC(=O)c2ccc3nc4n(c3c2)CCCNC4=O)c1 [Example 5, N-(4-methylpyridin-2-yl)-1-oxo-2,3,4,5-tetrahydro-1H-[1,4]diazepino[1,2-a]benzimidazole-8-carboxamide]",3200 nM
5,"Cc1nc(-c2cccc(NC(=O)c3ccc4nc5n(c4c3)CCCNC5=O)c2)cs1 [Example 7, N-[3-(2-methyl-1,3-thiazol-4-yl)phenyl]-1-oxo-2,3,4,5-tetrahydro-1H-[1,4]diazepino[1,2-a]benzimidazole-8-carboxamide]",1700 nM
6,"O=C(Nc1cccc(F)c1)c1ccc2nc3n(c2c1)CCCNC3=O [Example 8, N-(3-fluorophenyl)-1-oxo-2,3,4,5-tetrahydro-1H-[1,4]diazepino[1,2-a]benzimidazole-8-carboxamide]",960 nM
7,"NC(=O)c1ccccc1NC(=O)c1ccc2nc3n(c2c1)CCCNC3=O [Example 9, N-(2-carbamoylphenyl)-1-oxo-2,3,4,5-tetrahydro-1H-[1,4]diazepino[1,2-a]benzimidazole-8-carboxamide]",295 nM
8,"Cn1cc(NC(=O)c2ccc3nc4n(c3c2)CCCNC4=O)nc1C(=O)NC1CCCC1 [Example 10, N-[2-(cyclopentylcarbamoyl)-1-methyl-1H-imidazol-4-yl]-1-oxo-2,3,4,5-tetrahydro-1H-[1,4]diazepino[1,2-a]benzimidazole-8-carboxamide]",69 nM
9,"CC(C)n1ncc2cc(NC(=O)c3ccc4nc5n(c4c3)CCCNC5=O)cnc21 [Example 11, 1-oxo-N-[1-(propan-2-yl)-1H-pyrazolo[3,4-b]pyridin-5-yl]-2,3,4,5-tetrahydro-1H-[1,4]diazepino[1,2-a]benzimidazole-8-carboxamide]",870 nM
10,"Cn1cc(NC(=O)c2ccc3nc4n(c3c2)CCCNC4=O)cn1 [Example 13, N-(1-methyl-1H-pyrazol-4-yl)-1-oxo-2,3,4,5-tetrahydro-1H-[1,4]diazepino[1,2-a]benzimidazole-8-carboxamide]",320 nM
11,"Cn1cc(NC(=O)c2ccc3nc4n(c3c2)C(C)(C)CCNC4=O)cn1 [Example 14, 5,5-dimethyl-N-(1-methyl-1H-pyrazol-4-yl)-1-oxo-2,3,4,5-tetrahydro-1H-[1,4]diazepino[1,2-a]benzimidazole-8-carboxamide]",4000 nM
12,"CCn1c(NC(=O)c2ccc3nc4n(c3c2)CCCNC4=O)nc2ccc(Cl)nc21 [Example 15, N-(5-chloro-3-ethyl-3H-imidazo[4,5-b]pyridin-2-yl)-1-oxo-2,3,4,5-tetrahydro-1H-[1,4]diazepino[1,2-a]benzimidazole-8-carboxamide]",45 nM
13,"CN(C)CCCn1c(NC(=O)c2ccc3nc4n(c3c2)CCCNC4=O)nc2ccccc21 [Example 16, N-{1-[3-(dimethylamino)propyl]-1H-benzimidazol-2-yl}-1-oxo-2,3,4,5-tetrahydro-1H-[1,4]diazepino[1,2-a]benzimidazole-8-carboxamide]",92 nM
14,"CCn1c(NC(=O)c2ccc3nc4n(c3c2)CCCNC4=O)nc2cccnc21 [Example 17, N-(3-ethyl-3H-imidazol[4,5-b]pyridin-2-yl)-1-oxo-2,3,4,5-tetrahydro-1H-[1,4]diazepino[1,2-a]benzimidazole-8-carboxamide]",23 nM

# Continued, values first:
row,IC50,SMILES
1,0.34 nM,"C[C@H]1NC(=O)c2cc3ccc(C(=O)Nc4cnn(Cc5ccccc5)c4)nc3n2[C@H]1C (relative stereo) [Example 61, N-(1-benzyl-1H-pyrazol-4-yl)-cis-8,9-dimethyl-6-oxo-6,7,8,9-tetrahydropyrido[3′,2′:4,5]pyrrolo[1,2-a]pyrazine-2-carboxamide]"
2,3 nM,"C[C@@H]1NC(=O)c2cc3ccc(C(=O)Nc4cnn(Cc5ccccc5)c4)nc3n2[C@H]1C (relative stereo) [Example 62, N-(1-benzyl-1H-pyrazol-4-yl)-trans-8,9-dimethyl-6-oxo-6,7,8,9-tetrahydropyrido[3′,2′:4,5]pyrrolo[1,2-a]pyrazine-2-carboxamide]"
3,11.6 nM,"CCn1c(NC(=O)c2ccc3cc4n(c3n2)[C@@H](C)[C@@H](C)NC4=O)nc2ccccc21 (relative stereo) [Example 73, N-(1-ethyl-1H-benzimidazol-2-yl)- cis-8,9-dimethyl-6-oxo-6,7,8,9-tetrahydropyrido[3′,2′:4,5]pyrrolo[1,2-a]pyrazine-2-carboxamide]"
4,1110 nM,"CCn1c(NC(=O)c2ccc3cc4n(c3n2)[C@@H](C)[C@H](C)NC4=O)nc2ccccc21 (relative stereo) [Example 74, N-(1-ethyl-1H-benzimidazol-2-yl)- trans-8,9-dimethyl-6-oxo-6,7,8,9-tetrahydropyrido[3′,2′:4,5]pyrrolo[1,2-a]pyrazine-2-carboxamide]"
5,29 nM,"C[C@H]1NC(=O)c2cc3ccc(C(=O)Nc4nc5ccccc5n4CCCN(C)C)nc3n2[C@H]1C (relative stereo) [Example 77, N-{1-[3-(dimethylamino)propyl]-1H-benzimidazol-2-yl}-cis-8,9-dimethyl-6-oxo-6,7,8,9-tetrahydropyrido[3′,2′:4,5]pyrrolo[1,2-a]pyrazine-2-carboxamide]"
6,205 nM,"C[C@@H]1NC(=O)c2cc3ccc(C(=O)Nc4nc5ccccc5n4CCCN(C)C)nc3n2[C@H]1C (relative stereo) [Example 78, N-{1-[3-(dimethylamino)propyl]-1H-benzimidazol-2-yl}-trans-8,9-dimethyl-6-oxo-6,7,8,9-tetrahydropyrido[3′,2′:4,5]pyrrolo[1,2-a]pyrazine-2-carboxamide]"
7,2.6 nM,"Cc1cc(NC(=O)c2ccc3cc4n(c3n2)[C@@H](C)[C@@H](C)NC4=O)no1 (relative stereo) [Example 85, Cis-8,9-dimethyl-N-(5-methyl-1,2-oxazol-3-yl)-6-oxo-6,7,8,9-tetrahydropyrido[3′,2′:4,5]pyrrolo[1,2-a]pyrazine-2-carboxamide]"
8,110 nM,"Cc1cc(NC(=O)c2ccc3cc4n(c3n2)[C@@H](C)[C@H](C)NC4=O)no1 (relative stereo) [Example 86, Trans-8,9-dimethyl-N-(5-methyl-1,2-oxazol-3-yl)-6-oxo-6,7,8,9-tetrahydropyrido[3′,2′:4,5]pyrrolo[1,2-a]pyrazine-2-carboxamide]"
9,5.1 nM,"C[C@H]1NC(=O)c2cc3ccc(C(=O)Nc4cc(Cc5ccccc5)on4)nc3n2[C@H]1C (relative stereo) [Example 99, N-(5-benzyl-1,2-oxazol-3-yl)-cis-8,9-dimethyl-6-oxo-6,7,8,9-tetrahydropyrido[3′,2′:4,5]pyrrolo[1,2-a]pyrazine-2-carboxamide]"
10,57 nM,"C[C@@H]1NC(=O)c2cc3ccc(C(=O)Nc4cc(Cc5ccccc5)on4)nc3n2[C@H]1C (relative stereo) [Example 100, N-(5-benzyl-1,2-oxazol-3-yl)-trans-8,9-dimethyl-6-oxo-6,7,8,9-tetrahydropyrido[3′,2′:4,5]pyrrolo[1,2-a]pyrazine-2-carboxamide]"
11,35 nM,"Cn1c(NC(=O)c2ccc3nc4n(c3c2)CCCNC4=O)nc2ccccc21 [Example 2, N-(1-methyl-1H-benzimidazol-2-yl)-1-oxo-2,3,4,5-tetrahydro-1H-[1,4]diazepino[1,2-a]benzimidazole-8-carboxamide]"
12,44 nM,"O=C(Nc1cnn(Cc2ccccc2)c1)c1ccc2nc3n(c2c1)CCCNC3=O [Example 6, N-(1-benzyl-1H-pyrazol-4-yl)-1-oxo-2,3,4,5-tetrahydro-1H-[1,4]diazepino[1,2-a]benzimidazole-8-carboxamide]"
13,1200 nM,"O=C(Nc1cnc2ccccc2c1)c1ccc2nc3n(c2c1)CCCNC3=O [Example 12, 1-oxo-N-(quinolin-3-yl)-2,3,4,5-tetrahydro-1H-[1,4]diazepino[1,2-a]benzimidazole-8-carboxamide]"
